Assay results published in patent US20180249714A1, “Liquid Termiticide Compositions of Pyrethroids and Neonicitinoids” (FMC Corporation, priority 2004, published 2018).

Columns and labels:
Type in all cases: in vivo
[1] = system: termite (Reticulitermes flavipes) workers; test: Test to Determine Termite Mortality by Applications of Combinations of Bifenthrin and Imidacloprid (soil column in glass tube)
Procedure: (§1) The compositions of the present invention were tested for termiticide activity in the following manner:
Test compositions made up of TALSTAR® TERMITICIDE/INSECTICIDE and a wettable powder of imidacloprid in distilled water were prepared that provided appropriate rates of application of combinations of bifenthrin and imidacloprid, as well as bifenthrin and imidacloprid alone.
(§2) Glass tubing, 13 mm in diameter, was then cut into 20 cm sections in sufficient quantity to conduct the test. Each […] section of tubing was marked at 5 cm, 8 cm, and 18 cm distances from one end of the tube designated as the bottom. Each section of tubing was packed with a sandy soil (3% wt/wt moisture content) by first placing a section of a 1 cm diameter wooden dowel into the bottom of the glass tube up to the 8 cm marking, then introducing approximately 2 cm of soil into the other end of the tube designated as the top. The soil was then gently packed into the tube from the top using a second section of the 1 cm diameter wooden dowel. The process was repeated using 2 cm aliquots of soil until the soil level was adjacent to the 18 cm marking, thereby providing a column of soil 10 cm in height. An agar plug, which was formed in a section of the 13 mm diameter glass tubing of the type used to conduct these tests, was cut into 3 cm sections. A 3 cm section of agar was then gently pushed into the bottom of each tube containing the soil until the agar plug firmly touched the soil at the 8 cm marking, thereby creating a 5 cm void in the bottom of each section of tubing. Following placement of the agar plugs in each section of tubing; two sections of applicator sticks cut in 6 cm lengths were inserted into the bottom end of each tube thereby forcing about 1 cm of each stick into the agar plug to hold the agar plug in place. Plastic caps, with an inside diameter of 13 mm and holes drilled in their centers, were placed on the bottom ends of each of the sections of tubing. A sharpened applicator stick was then inserted into the hole in each plastic cap through the agar plug to the intersection of the agar plug and the soil. The applicator stick was then gently removed in a rotating manner to provide a means for a free flow of liquid through the soil. Each section of tubing was then stood upright, and 0.5 mL aliquots of each suspension of bifenthrin, imidacloprid or combinations thereof, as prepared above, were pipetted onto the top of the soil. Upon application of the test suspensions the top of each section of tubing was covered with a small piece of aluminum foil. The tubes were then allowed to stand for about 20 hours to allow movement of the termiticide(s) downward into the soil. After this time a plastic cap of 13 mm inside diameter was placed on the top of each section of tubing. The plastic caps with the holes drilled in their centers were removed from the bottom of each section of tubing, and a piece of 0.5 cm×4 cm filter paper was then placed between the two sections of applicator sticks. Fifty termite (Reticulitermes flavipes) workers were then inserted into the 5 cm void in the bottom of each section of tubing. New plastic caps without holes drilled in their centers were placed on the bottom of each section of tubing. The sections of tubing were then stored in an upright position, with the termites located below the soil. Termite mortality was measured at 1 hour, 2 hours, 1 day, 2 days and 7 days after treatment.

[2] = system: termite (Reticulitermes flavipes) workers; test: Test to Determine Termite Mortality by Applications of Combinations of Bifenthrin and Clothianadin (soil column in glass tube)
Procedure: as §1
Test compositions made up of TALSTAR® TERMITICIDE/INSECTICIDE and a wettable powder of clothianadin in distilled water were prepared that provided appropriate rates of application of combinations of bifenthrin and clothianadin, as well as bifenthrin and clothianadin alone.
as §2, with “clothianadin” for “imidacloprid”

[3] = system: termite (Reticulitermes flavipes) workers; test: Test to Determine Termite Mortality by Applications of Combinations of Bifenthrin and Thiamethoxam (soil column in glass tube)
Procedure: as §1
Test compositions made up of TALSTAR® TERMITICIDE/INSECTICIDE and a wettable powder of thiamethoxam in distilled water were prepared that provided appropriate rates of application of combinations of bifenthrin and thiamethoxam, as well as bifenthrin and thiamethoxam alone.
as §2, with “thiamethoxam” for “imidacloprid”

[4] = Rate of Appln. 10 PPM (0.001 % by weight)
[5] = Rate of Appln. 50 PPM (0.005 % by weight)

**Q.** How did the “Mortality Rate @ 1 Day” value [1, 4] turn out when `Cc1c(COC(=O)[C@@H]2[C@H](/C=C(\Cl)C(F)(F)F)C2(C)C)cccc1-c1ccccc1` (racemic) [A, bifenthrin] was run?
**A.** 13%

**Q.** What about the “Mortality Rate @ 1 Hour” value [1, 4] of the same molecule?
**A.** 0%

**Q.** What about the “Mortality Rate @ 2 Days” value [1, 4] of the same molecule?
**A.** 24%

**Q.** And the “Mortality Rate @ 2 Hours” value [1, 4]?
**A.** 0%

**Q.** What about the “Mortality Rate @ 7 Days” value [1, 4] of the same molecule?
**A.** 95%

**Q.** And the “Mortality Rate @ 1 Day” value [1, 5]?
**A.** 21%

**Q.** And the “Mortality Rate @ 1 Hour” value [1, 5]?
**A.** 0%

**Q.** What about the “Mortality Rate @ 2 Days” value [1, 5] of the same molecule?
**A.** 78%

**Q.** And the “Mortality Rate @ 2 Hours” value [1, 5]?
**A.** 0%

**Q.** What about the “Mortality Rate @ 7 Days” value [1, 5] of the same molecule?
**A.** 100%

**Q.** What about the “Mortality Rate @ 1 Day” value [2, 4] of the same molecule?
**A.** 13%

**Q.** What about the “Mortality Rate @ 1 Hour” value [2, 4] of the same molecule?
**A.** 0%

**Q.** What about the “Mortality Rate @ 2 Days” value [2, 4] of the same molecule?
**A.** 24%

**Q.** What about the “Mortality Rate @ 2 Hours” value [2, 4] of the same molecule?
**A.** 0%

**Q.** What about the “Mortality Rate @ 7 Days” value [2, 4] of the same molecule?
**A.** 95%

**Q.** And the “Mortality Rate @ 1 Day” value [2, 5]?
**A.** 21%

**Q.** What about the “Mortality Rate @ 1 Hour” value [2, 5] of the same molecule?
**A.** 0%

**Q.** What about the “Mortality Rate @ 2 Days” value [2, 5] of the same molecule?
**A.** 78%

**Q.** And the “Mortality Rate @ 2 Hours” value [2, 5]?
**A.** 0%

**Q.** What about the “Mortality Rate @ 7 Days” value [2, 5] of the same molecule?
**A.** 100%

**Q.** What about the “Mortality Rate @ 1 Day” value [3, 4] of the same molecule?
**A.** 3%

**Q.** And the “Mortality Rate @ 1 Hour” value [3, 4]?
**A.** 0%

**Q.** And the “Mortality Rate @ 2 Days” value [3, 4]?
**A.** 5%

**Q.** And the “Mortality Rate @ 2 Hours” value [3, 4]?
**A.** 0%

**Q.** What about the “Mortality Rate @ 7 Days” value [3, 4] of the same molecule?
**A.** 100%

**Q.** What about the “Mortality Rate @ 1 Day” value [3, 5] of the same molecule?
**A.** 10%

**Q.** And the “Mortality Rate @ 1 Hour” value [3, 5]?
**A.** 0%

**Q.** And the “Mortality Rate @ 2 Days” value [3, 5]?
**A.** 65%

**Q.** And the “Mortality Rate @ 2 Hours” value [3, 5]?
**A.** 0%

**Q.** And the “Mortality Rate @ 7 Days” value [3, 5]?
**A.** 100%
